The test system of test [1] is MN9D cells, vector only (control cells). Kind of test: Cell death (propidium iodide, flow cytometry), cells with empty vector. It is filed as cell-based. The following applies: Vector only construct. An excerpt: (§1) Parkinson's disease (PD) is characterized by the presence of aggregates (Lewy bodies) composed of alpha-synculein and other cellular proteins within neurons. (Paleologou; Gandhi) These aggregates are believed to be a critical factor in the death of the neuron and in the etiology of PD (Paleologou; Schrag). Mutated alpha-synuclein, as observed in those individuals with familial PD caused by synculein mutations, causes increased aggregate formation (Paleologou). A cell culture model is used to study alpha-synuclein aggregate formation in vitro. This model was created by using molecular biological techniques to transfect a dopaminergic cell line with DNA constructs that, when expressed, generate large amounts of normal alpha-synuclein (over-expressed) or mutated human alpha synuclein within the cells essentially as described by Perez et al (Perez). […] These cells were then treated with Difluoromethylornithine (DFMO) to test the ability of this agent to reduce cell death.
(§2) Compared to control cells, treatment with DFMO (100-500 uM) increased survival in cells over-expressing alpha synuclein and in cells expressing mutated alpha synuclein by up to 54%.

The subject of test [2] is Huntington's disease (HD) mice. The test is described as follows: Rotorod motor function test in HD mice. It is filed as in vivo. The following applies: treated HD mice vs untreated HD mice, day 93 and day 105 after birth. Here is the method:
This example was carried out as schematically illustrated in FIG. 1.
On the technique in general: The rotarod test checks motor coordination on a turning rod.

The subject of test [3] is MN9D cells expressing human A53T alpha-synuclein mutant. The test is described as follows: Cell death (propidium iodide, flow cytometry), cells expressing mutated alpha synuclein. The following applies: Mutated alpha synuclein construct. It is filed as cell-based.
Description: as §1, §2
In general terms: Flow cytometry measures light scatter and fluorescence of single cells or particles in a stream.

Test [4] deals with MN9D cells over-expressing human alpha synuclein (wild type). Kind of test: Cell death (propidium iodide, flow cytometry), cells over-expressing alpha synuclein. It is filed as cell-based.
Description: as §1, §2

[5] abbreviates: represents % cells rescued by DFMO, 100 um.

Structures are written as SMILES.

As for `NCCC[C@](N)(C(=O)O)C(F)F` [DFMO, Alpha-difluoromethylornithine], the “% Dead Cells (DFMO)” value in test [1] (DFMO-treated) turned out to be 30.2%; in test [3] (DFMO-treated), 38.1%; in test [4] (Alpha-synuclein construct, DFMO-treated) it was 29.8%. Moreover, the “Reduction in % dead cells with DFMO” value in test [1] (setting [5]) is on record as 9.6%. The Rotorod motor function entry in test [2] was “better”. The entries for the “% rescue compared to vector control for DFMO treated cells” value in test [3] and in test [4] (Alpha-synuclein construct) were 40% and 54%, respectively. The “Reduction in % dead cells with DFMO (100 uM)” value in test [3] (setting [5]) is 13.5%. Further, in test [4] (Alpha-synuclein construct, represents % cells rescued by DFMO, 100 um), the “% Dead Cells minus % DFMO-treated cells (100 um)” value is reported as 15%. The “Increased survival compared to control cells” value in test [4] (DFMO 100-500 uM, cells over-expressing alpha synuclein and cells expressing mutated alpha synuclein) is listed as “up to 54%”.

Values taken from patent US20060281817A1, “Treatment for neurodegenerative diseases” (priority 2005, published 2006).
